Experimental data from patent US9464084B2, “P2X7 modulators” (Janssen Pharmaceutica NV, priority 2013, dated 2016).

What follows are compounds tested against P2X7 (Homo sapiens (Human), UniProt Q99572) (assay: P2X7 antagonism in human PBMCs (LPS + Bz-ATP induced IL-1β release, ELISA)). Conditions: compound 1 μM, LPS 30 ng/ml, Bz-ATP 0.5 mM.
Type: cell-based
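Also: PBMCs from donor human blood, with a further 1.5 h incubation of the cells in the assay.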

Sequence of P2X7 (Q99572 whole entry): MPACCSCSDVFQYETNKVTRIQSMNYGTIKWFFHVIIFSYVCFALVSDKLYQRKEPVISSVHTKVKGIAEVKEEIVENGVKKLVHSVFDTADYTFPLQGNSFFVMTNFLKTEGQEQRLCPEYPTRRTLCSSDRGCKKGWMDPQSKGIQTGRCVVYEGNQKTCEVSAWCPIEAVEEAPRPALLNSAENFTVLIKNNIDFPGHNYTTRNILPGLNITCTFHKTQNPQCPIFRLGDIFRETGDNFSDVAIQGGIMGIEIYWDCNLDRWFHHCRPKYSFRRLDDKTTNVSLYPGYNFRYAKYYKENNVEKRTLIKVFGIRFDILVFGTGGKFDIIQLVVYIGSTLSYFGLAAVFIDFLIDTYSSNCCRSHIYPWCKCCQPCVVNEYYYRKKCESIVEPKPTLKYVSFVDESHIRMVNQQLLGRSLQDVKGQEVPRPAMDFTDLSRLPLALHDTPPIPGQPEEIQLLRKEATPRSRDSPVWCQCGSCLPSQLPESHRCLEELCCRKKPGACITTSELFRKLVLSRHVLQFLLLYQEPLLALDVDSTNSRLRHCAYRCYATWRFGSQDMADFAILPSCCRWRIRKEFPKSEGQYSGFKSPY

Structure (SMILES) | PBMC 1 μM (% control)
O=C(c1cccc(Cl)c1Cl)N1CCc2c(ncn2-c2ccccc2)C1 [Example 3, (2,3-Dichlorophenyl)(1-phenyl-6,7-dihydro-1H-imidazo[4,5-c]pyridin-5(4H)-yl)methanone] | 23.0 % control
O=C(c1cccc(C(F)(F)F)c1Cl)N1CCc2c(ncn2-c2cc(F)cc(F)c2)C1 [Example 7, (2-Chloro-3-(trifluoromethyl)phenyl)(1-(3,5-difluorophenyl)-6,7-dihydro-1H-imidazo[4,5-c]pyridin-5(4H)-yl)methanone] | 98.7 % control
O=C(c1cccc(C(F)(F)F)c1Cl)N1CCc2ncn(-c3ccccn3)c2C1 [Example 8, (2-Chloro-3-(trifluoromethyl)phenyl)(3-(pyridin-2-yl)-6,7-dihydro-3H-imidazo[4,5-c]pyridin-5(4H)-yl)methanone] | 83.1 % control
O=C(c1cccc(Cl)c1Cl)N1CCc2ncn(-c3ccccn3)c2C1 [Example 9, (2,3-Dichlorophenyl)(3-(pyridin-2-yl)-6,7-dihydro-3H-imidazo[4,5-c]pyridin-5(4H)-yl)methanone] | 83.7 % control
O=C(c1cccc(C(F)(F)F)c1Cl)N1CCc2ncn(-c3cnccn3)c2C1 [Example 10, (2-Chloro-3-(trifluoromethyl)phenyl)(3-(pyrazin-2-yl)-6,7-dihydro-3H-imidazo[4,5-c]pyridin-5(4H)-yl)methanone] | 76.5 % control
CC1c2ncn(-c3ccccc3)c2CCN1C(=O)c1cccc(C(F)(F)F)c1Cl (stereo not drawn) [Example 12, (2-Chloro-3-(trifluoromethyl)phenyl)(4-methyl-1-phenyl-6,7-dihydro-1H-imidazo[4,5-c]pyridin-5(4H)-yl)methanone] | 11.2 % control
CC1c2ncn(-c3ccccn3)c2CCN1C(=O)c1cccc(C(F)(F)F)c1Cl (stereo not drawn) [Example 17, (2-Chloro-3-(trifluoromethyl)phenyl)(4-methyl-1-(pyridin-2-yl)-6,7-dihydro-1H-imidazo[4,5-c]pyridin-5(4H)-yl)methanone] | 6.5 % control
CC1c2ncn(-c3ccc(F)cc3)c2CCN1C(=O)c1cccc(C(F)(F)F)c1Cl (stereo not drawn) [Example 18, (2-Chloro-3-(trifluoromethyl)phenyl)(1-(4-fluorophenyl)-4-methyl-6,7-dihydro-1H-imidazo[4,5-c]pyridin-5(4H)-yl)methanone] | 5.3 % control
O=C(c1cccc(C(F)(F)F)c1Cl)N1CCc2c(ncn2-c2ccccc2)C1CO (stereo not drawn) [Example 30, (5-{[2-Chloro-3-(trifluoromethyl)phenyl]carbonyl}-1-phenyl-4,5,6,7-tetrahydro-1H-imidazo[4,5-c]pyridin-4-yl)methanol] | 87.0 % control
O=C(O)C1c2ncn(-c3ccccn3)c2CCN1C(=O)c1cccc(C(F)(F)F)c1Cl (stereo not drawn) [Example 33, 5-{[2-Chloro-3-(trifluoromethyl)phenyl]carbonyl}-1-pyridin-2-yl-4,5,6,7-tetrahydro-1H-imidazo[4,5-c]pyridine-4-carboxylic acid] | 100.7 % control
O=C(c1cccc(C(F)(F)F)c1Cl)N1CCc2nc[nH]c2C1 [Example 48, 5-{[2-Chloro-3-(trifluoromethyl)phenyl]carbonyl}-4,5,6,7-tetrahydro-3H-imidazo[4,5-c]pyridine] | 90.1 % control
O=C(c1cccc(C(F)(F)F)c1Cl)N1C=Cc2c(ncn2-c2ccccc2)C1 [Example 49, 5-{[2-Chloro-3-(trifluoromethyl)phenyl]carbonyl}-1-phenyl-4,5-dihydro-1H-imidazo[4,5-c]pyridine] | 93.5 % control

Next, values leading:

PBMC 1 μM (% control) | Structure (SMILES)
96.0 % control | O=C(c1cccc2c1OC(F)(F)O2)N1CCc2c(ncn2-c2ccccc2)C1 [Example 50, 5-[(2,2-Difluoro-1,3-benzodioxol-4-yl)carbonyl]-1-phenyl-4,5,6,7-tetrahydro-1H-imidazo[4,5-c]pyridine]
97.6 % control | O=C(c1cccc2c1OCC2)N1CCc2c(ncn2-c2ccccc2)C1 [Example 51, 5-(2,3-Dihydro-1-benzofuran-7-ylcarbonyl)-1-phenyl-4,5,6,7-tetrahydro-1H-imidazo[4,5-c]pyridine]

Same assay, conditions: compound 10 μM, LPS 30 ng/ml, Bz-ATP 0.5 mM

Structure (SMILES) | PBMC 10 μM (% control)
Cc1nc(-n2nnc3c2CCN(C(=O)c2cccc(C(F)(F)F)c2Cl)C3C)ncc1F (single isomer, unassigned) [Example 306, (S*)-(2-chloro-3-(trifluoromethyl)phenyl)(1-(5-fluoro-4-methylpyrimidin-2-yl)-4-methyl-6,7-dihydro-1H-[1,2,3]triazolo[4,5-c]pyridin-5(4H)-yl)methanone] | 2.5 % control
C[C@H]1c2ncn(-c3ccc(F)cn3)c2CCN1C(=O)c1cccc(C(F)(F)F)c1Cl (stereo in doubt) [Example 41] | 40.5 % control
CC1c2ncn(-c3ccc(F)cn3)c2CCN1C(=O)c1cccc(C(F)(F)F)c1Cl (stereo not drawn) [Example 11, (2-Chloro-3-(trifluoromethyl)phenyl)(1-(5-fluoropyridin-2-yl)-4-methyl-6,7-dihydro-1H-imidazo[4,5-c]pyridin-5(4H)-yl)methanone] | 25.2 % control
CC1c2ncn(-c3ccccn3)c2CCN1C(=O)c1cccc(C(F)(F)F)c1F (stereo not drawn) [Example 19, (2-Fluoro-3-(trifluoromethyl)phenyl)(4-methyl-1-(pyridin-2-yl)-6,7-dihydro-1H-imidazo[4,5-c]pyridin-5(4H)-yl)methanone] | 11.6 % control
CC1c2ncn(-c3ncc(F)cn3)c2CCN1C(=O)c1cccc(C(F)(F)F)c1Cl (stereo not drawn) [Example 22, (2-Chloro-3-(trifluoromethyl)phenyl)(1-(5-fluoropyrimidin-2-yl)-4-methyl-6,7-dihydro-1H-imidazo[4,5-c]pyridin-5(4H)-yl)methanone] | −15.9 % control
O=C(c1cccc(C(F)(F)F)c1Cl)N1CCc2[nH]cnc2C1C(F)(F)F (stereo not drawn) [Example 39, 5-{[2-Chloro-3-(trifluoromethyl)phenyl]carbonyl}-4-(trifluoromethyl)-4,5,6,7-tetrahydro-1H-imidazo[4,5-c]pyridine] | 112.0 % control

Next, values leading:

PBMC 10 μM (% control) | Structure (SMILES)
103.3 % control | C[C@H]1c2n[nH]c(-c3ncc(F)cn3)c2CCN1C(=O)c1cccc(C(F)(F)F)c1Cl (single isomer, unassigned) [Example 224, (S*)-(2-chloro-3-(trifluoromethyl)phenyl)(3-(5-fluoropyrimidin-2-yl)-7-methyl-4,5-dihydro-2H-pyrazolo[3,4-c]pyridin-6(7H)-yl)methanone]
58.0 % control | Cc1cccc(-n2nnc3c2CCN(C(=O)c2cccc(C(F)(F)F)c2Cl)[C@@H]3C)n1 (single isomer, unassigned) [Example 226, (R*)-(2-chloro-3-(trifluoromethyl)phenyl)(4-methyl-1-(6-methylpyridin-2-yl)-6,7-dihydro-1H-[1,2,3]triazolo[4,5-c]pyridin-5(4H)-yl)methanone]
0.1 % control | C[C@H]1Cc2c(nnn2-c2ncc(F)cn2)CN1C(=O)c1ccnc(C(F)(F)F)c1F (single isomer, unassigned) [Example 228, (S*)-(3-fluoro-2-(trifluoromethyl)pyridin-4-yl)(1-(5-fluoropyrimidin-2-yl)-6-methyl-6,7-dihydro-1H-[1,2,3]triazolo[4,5-c]pyridin-5(4H)-yl)methanone]
116.4 % control | C[C@H]1c2nnn(-c3ncc(F)cn3)c2CCN1C(=O)c1ccnc(C(F)(F)F)c1F (single isomer, unassigned) [Example 229, (S*)-(3-fluoro-2-(trifluoromethyl)pyridin-4-yl)(1-(5-fluoropyrimidin-2-yl)-4-methyl-6,7-dihydro-1H-[1,2,3]triazolo[4,5-c]pyridin-5(4H)-yl)methanone]
86.9 % control | Cc1ccc(-n2nnc3c2CCN(C(=O)c2cccc(C(F)(F)F)c2Cl)[C@H]3C)nc1 (single isomer, unassigned) [Example 239, (S*)-(2-chloro-3-(trifluoromethyl)phenyl)(4-methyl-1-(5-methylpyridin-2-yl)-6,7-dihydro-1H-[1,2,3]triazolo[4,5-c]pyridin-5(4H)-yl)methanone]
74.3 % control | COCCn1ccc(-n2nnc3c2CCN(C(=O)c2cccc(C(F)(F)F)c2Cl)[C@@H]3C)n1 (single isomer, unassigned) [Example 248, (R*)-(2-Chloro-3-(trifluoromethyl)phenyl)(1-(1-(2-methoxyethyl)-1H-pyrazol-3-yl)-4-methyl-6,7-dihydro-1H-[1,2,3]triazolo[4,5-c]pyridin-5(4H)-yl)methanone]
5.1 % control | COCCn1ccc(-n2nnc3c2CCN(C(=O)c2cccc(C(F)(F)F)c2Cl)[C@H]3C)n1 (single isomer, unassigned) [Example 249, (S*)-(2-Chloro-3-(trifluoromethyl)phenyl)(1-(1-(2-methoxyethyl)-1H-pyrazol-3-yl)-4-methyl-6,7-dihydro-1H-[1,2,3]triazolo[4,5-c]pyridin-5(4H)-yl)methanone]
98.5 % control | C[C@H]1c2nnn(-c3ncccn3)c2CCN1C(=O)c1cccc(C(F)(F)F)c1F (single isomer, unassigned) [Example 270, (S*)-(2-fluoro-3-(trifluoromethyl)phenyl)(4-methyl-1-(pyrimidin-2-yl)-6,7-dihydro-1H-[1,2,3]triazolo[4,5-c]pyridin-5(4H)-yl)methanone]
−7.1 % control | Cc1cccnc1-n1nnc2c1CCN(C(=O)c1cccc(C(F)(F)F)c1Cl)[C@@H]2C (single isomer, unassigned) [Example 291, (R*)-(2-chloro-3-(trifluoromethyl)phenyl)(4-methyl-1-(3-methylpyridin-2-yl)-6,7-dihydro-1H-[1,2,3]triazolo[4,5-c]pyridin-5(4H)-yl)methanone]
36.7 % control | Cc1cccnc1-n1nnc2c1CCN(C(=O)c1cccc(C(F)(F)F)c1Cl)[C@H]2C (single isomer, unassigned) [Example 292, (S*)-(2-chloro-3-(trifluoromethyl)phenyl)(4-methyl-1-(3-methylpyridin-2-yl)-6,7-dihydro-1H-[1,2,3]triazolo[4,5-c]pyridin-5(4H)-yl)methanone]
